What was measured:
[1] = system: GAr-based inhibition of translation; test: Yeast assay (assays described in Lista et al.); type: cell-based, Saccharomyces cerevisiae
Excerpt: A yeast-based (Saccharomyces cerevisiae) assay that recapitulates all the aspects of the GAr-based inhibition of translation, including the GAr-length dependency, has been developed, that allowed understanding the mechanisms of GAr-mediated mRNA translation—suppression in cis, as well as the cellular factors involved (Lista et al. Biotechnol J 2015, 10, 1670-1681). This assay was successfully used to identify small molecular weight compounds that can stimulate EBNA1 expression both in yeast and mammalian cells and that relieve GAr-based limitation of antigen presentation (Voisset et al. Dis Model Mech 2014, 7, 435-444).
Compounds 1a, 2a, 4a, 5a, 7a, 10a and 11a were also tested in the various assay described in Lista et al. (Nat Commun 2017, 8, 16043).

[2] = system: EBNA1 expression in EBV-infected cells; test: Western blot of endogenous EBNA1 in EBV-infected cell lines (B95.8, Mutu-1, Raji); type: cell-based; details: GAr-dependent; 2a in B95.8, Mutu-1 and Raji, 11a in Raji
Procedure: Therefore, compound 2a interferes with the GAr-based inhibition of protein expression. Interference with EBNA1 expression in EBV-infected cells was assessed in different cell lines. The principle of these experiments is the same than the one described in the paragraph just above except that the steady state level of endogenous EBNA1 is determined in these EBV-infected cell lines.
B95.8 cells are derived from cotton-top Tamarin Monkey peripheral blood lymphocyte EBV-positif. Mutu-1 cells are derived from an EBV-positive Burkitt's lymphoma biopsy specimen from a patient. Raji cells are EBV-positive type III latency Burkitt's lymphoma.
Compounds 2a and 11a increase in a GAr-dependent manner EBNA1 expression in EBV-infected cells.

[3] = system: GAr-limited antigen presentation; test: Antigen presentation assay (IL-2 ELISA); type: cell-based; details: 5 μM and 10 μM, compared to DMSO-treated cells
Procedure: Stars indicate significant results (the higher the number of stars, the more significant). […]ns[…] stands for not significant.
The aim of this assay was to determine if compounds 2a and 11a were able to interfere (suppress) with the GAr-dependent limitation of EBNA1-derived antigenic peptid presentation. H1299 cells were transfected with 235GAr-OVA or OVA plasmids and murine MHC class I Kb plasmids. T-cell proliferation is determined using ELISA assay for Mouse IL-2 (IL-2 is a potent lymphoid cell growth factor which exerts its biological activity primarily in T cell). There is therefore a correlation between the quantity of IL2 released and the T-cell proliferation.
Quantifications of IL2 release following treatment with compounds 2a or 11a, as compared to DMSO-treated cells are shown in the FIG. 7. […] These compounds thus increase T-cell proliferation.

[4] = system: Mutu-1 cells; test: Cell viability (MTT assay); type: cell-based; parameters: dose or concentration left out as unconfirmed; details: concentration range where they increase EBNA1 expression; preliminary results
Procedure: (§1) Stars indicate significant results (the higher the number of stars, the more significant).
Toxicity of various concentration of G4 ligands on Mutu-1 cells was assessed using the classical MTT assay. The results obtained with various concentrations of compounds 2a and 11a were compared to the result obtained with cells treated by DMSO (compound vehicle).

[5] = system: interaction between NCL and the G4s of EBNA1 mRNA; test: Proximity ligation assay (PLA) in H1299 cells transfected with EBNA1 plasmids; type: cell-based; details: 5 μM
Excerpt: as §1

For `C[n+]1ccc(C=NNC(=O)c2cccc(C(=O)NN=Cc3cc[n+](C)c4ccccc34)n2)c2ccccc21.[I-].[I-]` [Compound 2a, N′^2, N′^6-Bis[(1-methylquinolinium-4-yl)methylene]pyridine-2,6-dicarbohydrazide iodide], the “result in the yeast assay” value [1] was “positive results”, the “EBNA1 expression in EBV-infected cells” value [2] was “increase” and the “release of IL-2, H1299 cells expressing 235GAr-OVA” value [3] was “significantly increased (two-fold change)”. The “release of IL-2, OVA-expressing cells” value [3] was “no effect”, the “toxicity on Mutu-1 cells” value [4] was “not significantly toxic” and the “number of PLA dots and their intensity” value [5] was “significantly reduce”. The “number of nuclear PLA dots per cell” value [5] was “significantly reduced”.
For `C[n+]1ccc(C=NNC(=O)c2ccc3ccc4ccc(C(=O)NN=Cc5cc[n+](C)c6ccccc56)nc4c3n2)c2ccccc21.[I-].[I-]` [Compound 11a, N′^2,N′^9-Bis[(1-methylquinolinium-4-yl)methylene]-1,10-phenanthroline-2,9-dicarbohydrazide iodide], the “result in the yeast assay” value [1] was “positive results”, the “EBNA1 expression in EBV-infected cells” value [2] was “increase” and the “release of IL-2, H1299 cells expressing 235GAr-OVA” value [3] was “significantly increased (two-fold change)”. For the same compound, the “release of IL-2, OVA-expressing cells” value [3] was “no effect”, the “toxicity on Mutu-1 cells” value [4] was “not significantly toxic” and the “number of PLA dots and their intensity” value [5] was “significantly reduce”. The “number of nuclear PLA dots per cell” value [5] was “significantly reduced”.

Reference: patent publication US11406631B2, “Hydrazone derivatives for preventing or treating EBV-related cancers” (Universite de Bretagne Occidentale, priority 2018, dated 2022)
